Literature values in publication PMC10197133, “Synthesis, Computational Insights, and Evaluation of Novel Sigma Receptors Ligands” (ACS Chemical Neuroscience, 2023).

Target: S1R (Rattus norvegicus, UniProt Q9R0C9)
Details: statement in the introduction; cited from earlier work

Sequence of S1R (Q9R0C9 whole entry): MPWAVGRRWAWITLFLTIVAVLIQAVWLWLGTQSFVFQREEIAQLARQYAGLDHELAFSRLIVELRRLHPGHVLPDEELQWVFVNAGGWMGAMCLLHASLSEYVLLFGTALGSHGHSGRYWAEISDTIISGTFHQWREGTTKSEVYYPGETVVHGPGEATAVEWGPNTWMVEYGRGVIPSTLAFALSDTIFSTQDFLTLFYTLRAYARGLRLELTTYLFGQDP

SMILES: CCCN1CCC(c2cccc(S(C)(=O)=O)c2)CC1 [Pridopidine]
- fold greater affinity for S1R than for D2: 100 fold
